From patent US10675257B2, “Method of treating cancer with a combination of benzylideneguanidine derivatives and chemotherapeutic agent” (InFlectis BioScience, priority 2015, dated 2020)
Entries after “also recorded” stand apart in the source; their conditions may differ. Counter-ions that a name gives are not always drawn.

Tested on: glioblastoma cell line GL261
Test: GL261 glioblastoma tumor grafted on the chorio-allantoic membrane (CAM) of embryonated chicken eggs, tumor weight at E19
Type: in vivo, chicken embryo (Fertilized White Leghorn eggs)
Conditions: for Tumor weight (mg) (N = 7 to 12) / Tumor weight (mg) (N = 18): after 10 days of treatment; for Effect on GL261 tumor size/weight on the upper CAM, in words: test compound (100 nM) together with temozolomide (500 microM), compared to temozolomide alone or compound alone; for Effect on GL261 tumor size, in words: test compound alone (100 nM)
Protocol: Fertilized White Leghorn eggs were incubated at 38° C. with 60% relative humidity for 9 days. At this time (E9), the chorio-allantoic membrane (CAM) was dropped by drilling a small hole through the eggshell into the air sac and a 1 cm^2 window was cut in the eggshell above the CAM.
Cultured glioblastoma cell line GL261 were detached by trypsinization, washed with complete medium, labeled and suspended in serum free DMEM. An inoculum of GL261 cells was added onto the CAM of each egg. Eggs were then randomized in 6 groups.
They were then treated during 10 days, every two days (E10, E12, E14, E16, E18), by dropping 100 μl of test compound (100 nM), Temozolomide (500 microM), test compound (100 nM) and Temozolomide (500 microM), or Control (0.02% DMSO) onto the tumor.
At day E19 the upper portion of the CAM was removed, transferred in PBS and the tumors were then carefully cut away from normal CAM tissue. Tumors were then weighted. In parallel, a 1 cm^2 portion of the lower CAM was collected to evaluate the number of nodules, containing expressing cells. The fluorescent nodules were visualized in situ using whole mounts of fixed tissue and flattened between a hollow glass slide and a thick coverslip. In order to number the nodules, a thorough and complete visual scan of the piece of the lower CAM was done using fluorescent microscope.
Glioblastoma cell line GL261 was grafted on the chorio-allantoic membrane (CAM) of Fertilized White Leghorn eggs. The tumors were treated every two days with test compound ([…]), temolozomide (500 microM) or test compound (100 nM) and temozolomide (500 microM). For the control, the tumors were treated with 0.02% DMSO. Between seven (7) to eighteen (18) eggs were treated for each condition.

[1] = combination test compound/Temozolomide 100 nM/500 μM, control 106.65
[2] = test compound alone 100 nM, control (0.02% DMSO) 106.65
[3] = combination test compound/Temozolomide 100 nM/500microM, control 120.5

| SMILES | Tumor weight (mg) (N = 7 to 12) [1] | Effect on GL261 tumor size, in words | Effect on GL261 tumor size/weight on the upper CAM, in words | also measured |
| --- | --- | --- | --- | --- |
| CC(C)CCO/N=C(\N)N/N=C/c1ccccc1Cl [Compound 11, Formate Salt] | 67.29 | reduces the tumor size |  | Effect on GL261 tumor size/weight on the upper CAM, in words (Formate Salt): synergistic reduction of GL261 tumor weight; also recorded: synergistic effect to reduce the tumor size; Tumor weight (mg) (N = 7 to 12) [2]: 87.63 mg |
| Cn1nnc2c(C(N)=O)ncn2c1=O [Temozolomide, 3,4-dihydro-3-methyl-4-oxoimidazo [5,1-d]-as-tetazine-8-carboxamide, reference compound] |  |  |  | Tumor weight (mg) (N = 7 to 12) (Temozolomide alone 500 μM, control (0.02% DMSO) 106.65): 90.17 mg; Tumor weight (mg) (N = 18) (Temozolomide alone 500microM, control (0.02% DMSO) 120.5): 86.3 mg |
| CCCO/N=C(\N)N/N=C/c1ccncc1Cl [Compound 33, 2-[(3-chloropyridin-4-yl)methylidene]-N-propoxyhydrazinecarboximidamide] | 62.42 | display anti-glioma activity by reducing the tumor size | further reduction of GL261 tumor weight; also recorded: further reduce the tumor size |  |
| CCCCO/N=C(\N)N/N=C/c1ccccc1Cl [Compound 28, N′-butoxy-2-(2-chlorobenzylidene)hydrazinecarboximidamide] | 51.33 | display anti-glioma activity by reducing the tumor size | further reduction of GL261 tumor weight; also recorded: further reduce the tumor size |  |
| CCCO/N=C(\N)N/N=C/c1ccccc1Cl [Compound 22, 2-(2-chlorobenzylidene)-N-propoxyhydrazinecarboximidamide] |  |  | synergistic reduction of GL261 tumor weight; also recorded: synergistic effect to reduce the tumor size | Tumor weight (mg) (N = 18) [3]: 48.4 mg |
| N/C(=N\OCCO)N/N=C/c1ccccc1Cl [Compound 16, 2-(2-chlorobenzylidene)-N′-(2-hydroxyethoxy)hydrazinecarboximidamide] | 48.11 | display anti-glioma activity by reducing the tumor size | further reduction of GL261 tumor weight; also recorded: further reduce the tumor size |  |
| CCSCCO/N=C(\N)N/N=C/c1ccccc1Cl [Compound 25, 2-(2-chlorobenzylidene)-N-[2-(ethylsulfanyl)ethoxy]hydrazinecarboximidamide] | 43.6 |  |  |  |
| CCCO/N=C(\N)N/N=C/c1c(F)cccc1Cl [Compound 29, 2-(2-chloro-6-fluorobenzylidene)-N′-propoxyhydrazinecarboximidamide] | 54.13 | display anti-glioma activity by reducing the tumor size | further reduction of GL261 tumor weight; also recorded: further reduce the tumor size |  |
| CC(=O)O.N=C(N)N/N=C/c1ccncc1Cl [Compound 6, 2-[(3-chloropyridin-4-yl)methylidene]hydrazinecarboximidamide Acetate] | 70.45 |  |  | Effect on GL261 tumor size/weight on the upper CAM, in words (Acetate): synergistic reduction of GL261 tumor weight; also recorded: synergistic effect to reduce the tumor size; Tumor weight (mg) (N = 7 to 12) [2]: 107.76 mg; Effect on GL261 tumor size, in words (Acetate): no effect on tumor size reduction; also recorded: no effect to reduce the tumor size |
| CCO/N=C(\N)N/N=C/c1ccccc1Cl [Compound 20, 2-(2-chlorobenzylidene)-N′-ethoxyhydrazinecarboximidamide] | 73.51 | display anti-glioma activity by reducing the tumor size | further reduction of GL261 tumor weight; also recorded: further reduce the tumor size |  |
| CCO/N=C(\N)N/N=C/c1ccncc1Cl [Compound 26, 2-[(3-chloropyridin-4-yl)methylidene]-N-ethoxyhydrazinecarboximidamide] | 66.23 | display anti-glioma activity by reducing the tumor size | further reduction of GL261 tumor weight; also recorded: further reduce the tumor size |  |
| C=CCO/N=C(\N)N/N=C/c1ccccc1Cl [Compound 15, 2-(2-chlorobenzylidene)-N′-(prop-2-en-1-yloxy)hydrazine Carboximidamide] | 40.66 | reduces the tumor size | synergistic reduction of GL261 tumor weight; also recorded: synergistic effect to reduce the tumor size | Tumor weight (mg) (N = 7 to 12) [2]: 63.44 mg |
| NC(N)=N/N=C/c1c(Cl)cccc1Cl [Compound 1, 2-(2,6-dichlorobenzylidene)hydrazine carboximidamide, reference compound] |  |  |  | Tumor weight (mg) (N = 18) [3]: 68.3 mg; Tumor weight (mg) (N = 18) (test compound alone 100 nM, control (0.02% DMSO) 120.5): 115 mg |
